Earlier results, collected in patent US6310247A, “7-aryl-6(Z)-heptatrienoic acid retinamides” (Hoffmann-LA Roche Inc., priority 1999, dated 2001).
“Also recorded” adds a separate entry of the source.

Assays:
[1] = test system: ER+ and ER- breast carcinoma cells; settings: cited from earlier work
tumor cells = settings: cited from earlier work
tumors = settings: cited from earlier work
[2] = cited from earlier work

Compound: CC1=C(/C=C/C(C)=C/C=C/C(C)=C/C(=O)Nc2ccc(O)cc2)C(C)(C)CCC1 [4-HPR, all trans 4-hydroxyphenyl retinamide]
- Growth inhibition and apoptosis in breast carcinoma cells (in words) [1]: capable of inhibiting cell growth and inducing apoptosis; also recorded: appears to induce apoptosis and cause inhibition of cell growth
- Induction of apoptosis in retinoid-resistant cells (in words) (tumor cells; cells resistant to retinoids that activate RARs efficiently): effective in inducing apoptosis
- Growth inhibition and apoptosis in other tumor cell types (in words) (tumor cells; including lung carcinoma cell and hematopoetic malignancies): inhibit cell growth and to induce apoptosis
- Chemopreventative activity (in words) (tumors; against a number of malignancies): potent chemopreventative agent
- Tumor regression (in words) (tumors; in vivo): capable of tumor regression in vivo
- Effect on tumor formation and tumor growth (in words) (tumors; via apoptosis): inhibit tumor formation and tumor growth via apoptosis
- Major toxicity seen in the clinic [2]: night vision impairment
